# Results as given in ChEMBL document CHEMBL1201862, “PubChem BioAssay data set” (2004).
#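 Each compound was tested at five concentrations against cells in 96-well plates for 48 hours. GI50: concentration for 50% inhibition of growth.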 Active and inactive are the calls of the source. No stated cut-off is given here; in the data, active = GI50 up to about 1.1 µM and inactive = higher.
# How the values were obtained:
# Assay in all cases: DTP human tumour cell line panel, 48 h
# SW-620 = test system: SW-620
# KM12 = test system: KM12
# CCRF-CEM = test system: CCRF-CEM
# HCT-15 = test system: HCT-15
# UACC-257 = test system: UACC-257
# M14 = test system: M14
# 786-0 = test system: 786-0
# SK-MEL-5 = test system: SK-MEL-5
# UACC-62 = test system: UACC-62
# RXF 393 = test system: RXF 393
# CAKI-1 = test system: CAKI-1
# SNB-19 = test system: SNB-19
# IGROV-1 = test system: IGROV-1
# K562 = test system: K562
# HT-29 = test system: HT-29
# SF-268 = test system: SF-268
# OVCAR-4 = test system: OVCAR-4
# HOP-62 = test system: HOP-62
# OVCAR-3 = test system: OVCAR-3
# SK-OV-3 = test system: SK-OV-3
SMILES,GI50 (SW-620),GI50 (KM12),GI50 (CCRF-CEM),GI50 (HCT-15),GI50 (UACC-257),GI50 (M14),GI50 (786-0),GI50 (SK-MEL-5),GI50 (UACC-62),GI50 (RXF 393),GI50 (CAKI-1),GI50 (SNB-19),GI50 (IGROV-1),GI50 (K562),GI50 (HT-29),GI50 (SF-268),GI50 (OVCAR-4),GI50 (HOP-62),GI50 (OVCAR-3),GI50 (SK-OV-3)
c1ccc(SC(Sc2ccccc2)c2ccc3c(c2)OCO3)cc1,> 100 µM (inactive),> 100 µM (inactive),> 100 µM (inactive),> 100 µM,> 100 µM (inactive),> 100 µM (inactive),> 100 µM (inactive),> 100 µM (inactive),> 100 µM (inactive),> 100 µM (inactive),> 100 µM (inactive),> 100 µM (inactive),> 100 µM (inactive),> 100 µM (inactive),65.2 µM (inactive),93.1 µM (inactive),> 100 µM (inactive),> 100 µM (inactive),60.3 µM (inactive),–
C/C(=N/NC(=S)Nc1ccc([N+](=O)[O-])cc1)c1cccc(/C(C)=N\NC(=S)Nc2ccc([N+](=O)[O-])cc2)n1,0.364 µM (active),0.348 µM (active),0.318 µM (active),0.125 µM,1.09 µM (active),0.321 µM (active),0.264 µM (active),0.353 µM (active),0.493 µM (active),0.53 µM (active),0.631 µM (active),1.33 µM (inactive),0.569 µM (active),0.569 µM (active),0.628 µM (active),–,0.959 µM (active),0.752 µM (active),0.0867 µM (active),2.13 µM (inactive)
CC(=O)O[C@H]1CCC2[C@@H]3CCC4=C(O)C(=O)C(C#N)C[C@]4(C)C3CC[C@@]21C (some centres undefined),47.1 µM (inactive),35.7 µM (inactive),30.1 µM (inactive),30 µM,56.5 µM (inactive),34 µM (inactive),24.4 µM (inactive),26.1 µM (inactive),15.5 µM (inactive),24.9 µM (inactive),–,45.1 µM (inactive),26.2 µM (inactive),24.8 µM (inactive),42.5 µM (inactive),24.4 µM (inactive),30.9 µM (inactive),65.5 µM (inactive),38.6 µM (inactive),29.4 µM (inactive)
COC(=O)C(=O)Nc1cc2c3c(c1)Oc1cccc4c1C3(C)c1c(cccc1O2)O4,> 100 µM (inactive),> 100 µM (inactive),1.26 µM (inactive),97.5 µM,> 100 µM (inactive),> 100 µM (inactive),30.9 µM (inactive),> 100 µM (inactive),> 100 µM (inactive),18.7 µM (inactive),> 72.4 µM (inactive),> 100 µM (inactive),55.8 µM (inactive),–,–,> 100 µM (inactive),> 100 µM (inactive),> 100 µM (inactive),34.2 µM (inactive),> 100 µM (inactive)
COc1ccc(/C=C/C(=N/NC(=O)N/N=C(/C=C/c2ccc(OC)cc2)C(C)(C)CN2CCCCC2)C(C)(C)CN2CCCCC2)cc1,2.11 µM (inactive),1.81 µM (inactive),1.27 µM (inactive),3.12 µM,1.86 µM (inactive),1.71 µM (inactive),1.59 µM (inactive),1.63 µM (inactive),–,1.35 µM (inactive),1.83 µM (inactive),2.61 µM (inactive),2.27 µM (inactive),0.467 µM (active),1.58 µM (inactive),–,1.88 µM (inactive),2.15 µM (inactive),1.87 µM (inactive),1.98 µM (inactive)
CN(C)CC/C(=N\Nc1ccc(Cl)c(Cl)c1)c1ccccc1,1.72 µM (inactive),2.05 µM (inactive),2.11 µM (inactive),1.98 µM,3 µM (inactive),–,1.71 µM (inactive),1.84 µM (inactive),1.95 µM (inactive),2.55 µM (inactive),–,3.49 µM (inactive),2.18 µM (inactive),1.93 µM (inactive),1.96 µM (inactive),1.79 µM (inactive),2.58 µM (inactive),2.4 µM (inactive),2.8 µM (inactive),3.72 µM (inactive)
CC(C)(C)O/N=C/c1cc(NC(=S)c2ccsc2)ccc1Cl,17.2 µM (inactive),9.89 µM (inactive),10.7 µM (inactive),14.6 µM,12.6 µM (inactive),16.7 µM (inactive),16.2 µM (inactive),3.99 µM (inactive),15.5 µM (inactive),14.1 µM (inactive),16.6 µM (inactive),–,16.7 µM (inactive),–,13.3 µM (inactive),16 µM (inactive),14.6 µM (inactive),16 µM (inactive),14.9 µM (inactive),18.7 µM (inactive)
COc1cc(C(=C2SCCS2)c2nccc3cc(OC)c(OC)cc23)c([N+](=O)[O-])cc1OC,62.1 µM (inactive),90.4 µM (inactive),34.1 µM (inactive),–,34 µM (inactive),89.9 µM (inactive),59.3 µM (inactive),23.7 µM (inactive),74.3 µM (inactive),> 100 µM (inactive),–,> 100 µM (inactive),> 100 µM (inactive),9.42 µM (inactive),58.9 µM (inactive),80.9 µM (inactive),–,> 100 µM (inactive),40.9 µM (inactive),65.9 µM (inactive)
CCCNC(=O)NNC(=O)c1c[nH]c2nc(C)ccc2c1=O,> 100 µM (inactive),> 100 µM (inactive),> 100 µM (inactive),> 100 µM,> 100 µM (inactive),> 100 µM (inactive),> 100 µM (inactive),> 100 µM (inactive),> 100 µM (inactive),> 100 µM (inactive),> 100 µM (inactive),> 100 µM (inactive),> 100 µM (inactive),> 100 µM (inactive),> 100 µM (inactive),> 100 µM (inactive),> 100 µM (inactive),> 100 µM (inactive),> 100 µM (inactive),–
COC(=O)/C=C/c1ccc2c(c1)CC1(Cc3ccccc3C1)C2,–,> 100 µM (inactive),28 µM (inactive),> 100 µM,> 100 µM (inactive),> 100 µM (inactive),> 100 µM (inactive),43.2 µM (inactive),15.2 µM (inactive),16.5 µM (inactive),–,–,> 100 µM (inactive),37.5 µM (inactive),79.4 µM (inactive),–,> 100 µM (inactive),> 100 µM (inactive),> 100 µM (inactive),> 100 µM (inactive)
Cc1nc2ccc(F)cc2c2c1CCO2,> 100 µM (inactive),> 100 µM (inactive),> 100 µM (inactive),> 100 µM,> 100 µM (inactive),99.1 µM (inactive),> 100 µM (inactive),43.5 µM (inactive),> 100 µM (inactive),36.8 µM (inactive),15.2 µM (inactive),> 100 µM (inactive),> 100 µM (inactive),41.5 µM (inactive),82.6 µM (inactive),> 100 µM (inactive),> 100 µM (inactive),–,–,–
O=C(CC1C(=O)Nc2ccccc2[S+]1[O-])Nc1ccccc1 (centres undefined),> 100 µM (inactive),> 100 µM (inactive),> 100 µM (inactive),> 100 µM,> 100 µM (inactive),> 100 µM (inactive),40.8 µM (inactive),> 100 µM (inactive),> 100 µM (inactive),19.8 µM (inactive),> 100 µM (inactive),> 100 µM (inactive),> 100 µM (inactive),–,> 100 µM (inactive),> 100 µM (inactive),> 100 µM (inactive),> 100 µM (inactive),> 100 µM (inactive),26.9 µM (inactive)
O=[N+]([O-])C1C2C=CC(C2)[C@H]1c1ccc(Cl)cc1Cl (some centres undefined),74.5 µM (inactive),61.2 µM (inactive),39.4 µM (inactive),43.3 µM,31.8 µM (inactive),> 10 µM (inactive),54.3 µM (inactive),4.36 µM (inactive),–,20.9 µM (inactive),> 10 µM (inactive),48.5 µM (inactive),–,35.4 µM (inactive),21.4 µM (inactive),45.1 µM (inactive),> 10 µM (inactive),> 10 µM (inactive),–,–
CC1=CC2(C)C=C[C@@H]1C(=O)[C@@]1(C)CC[C@@](O)(C(C)C)[C@H]1CC2,18.8 µM (inactive),20.3 µM (inactive),21.6 µM (inactive),24.2 µM,16.4 µM (inactive),19.3 µM (inactive),17.3 µM (inactive),19.7 µM (inactive),20.1 µM (inactive),19.4 µM (inactive),–,23.6 µM (inactive),26.2 µM (inactive),20 µM (inactive),16.1 µM (inactive),23.8 µM (inactive),17.8 µM (inactive),20.2 µM (inactive),16.1 µM (inactive),23.6 µM (inactive)
COc1ccc(C2=C(OC(C)=O)c3cccn3-c3ccccc3S2)cc1,2.55 µM (inactive),2.62 µM (inactive),2.9 µM (inactive),1.18 µM,> 10 µM (inactive),5.68 µM (inactive),2.46 µM (inactive),3.37 µM (inactive),2.9 µM (inactive),1.61 µM (inactive),4.55 µM (inactive),–,4.81 µM (inactive),–,2.19 µM (inactive),> 10 µM (inactive),4.69 µM (inactive),3.1 µM (inactive),–,2.65 µM (inactive)
